Conditions: made by mixing lanthanum chloride, citric acid and sodium hydroxide solutions

## lanthanum hydroxy-citrate
  content of clear stable solutions: up to 200 g/l

Reference: patent US6946076B2, “Removal of phosphate from water” (Dudley Mills Pty Ltd., priority 2001, dated 2005)
